According to patent US5968929A, “Piperazino derivatives as neurokinin antagonists” (Schering Corporation, priority 1997, dated 1999):

How the values were obtained:
[1] = biological target: T1, human neurokinin 1 (NK1) receptor (Homo sapiens, UniProt P25103); experiment: Neurokinin receptor binding assay, NK1 ([3H]-Substance P, CHO cell membranes); details: competition with [3H]-Substance P, Cheng and Prusoff
T1 construct: expressed in transfected cells; host or cells: Chinese hamster ovary (CHO) cells, membranes
Method: (§1) Neurokinin Receptor Binding Assay(s)
(§2) Chinese Hamster ovary (CHO) cells transfected with the coding regions for the human neurokinin 1 (NK1) of the human neurokinin 2 (NK2) receptors are grown in Dulbecco's minimal essential medium supplemented with 10% fetal calf serum, 0.1 mM non-essential amino acids, 2 mM glutamine, 100 units/ml of penicillin and streptomycin, and 0.8 mg of G418/ml at 37° C. in a humidified atmosphere containing 5% CO2.
(§3) Cells are detached from T-175 flasks with a sterile solution containing 5 mM EDTA in phosphate buffered saline. Cells are harvested by centrifugation and washed in RPMI media at […] for 5 minutes. The pellet is resuspended in Tris-HCl(pH7.4) containing 1 uM phosphoramidon and 4 ug/ml of chymostatin at a cell density of 30×10^6 cells/ml. The suspension is then homogenized in a Brinkman Polytron (setting 5) for 30-45 seconds. The homogenate is centrifuged at 800×g for 5 min at 4° C. to collect unbroken cells and nuclei. The supernatant is centrifuged in a Sorvall RC5C at 19,000 rpm ([…]) for 30 min at 4° C. The pellet is resuspended, an aliquot is removed for a protein determination (BCA) and washed again. The resulting pellet is stored at -80° C.
(§4) Binding is initiated by the addition of 100 μl of membrane (10-20 μg) containing the human NK-1 or NK-2 receptor in a final volume of 200 μl. After 40 minutes at room temperature, the reaction is stopped by rapid filtration onto Whatman GF/C filters which have been presoaked in 0.3% polyethylenimine. Filters are washed 2 times with 3 ml of 50 mM Tris-HCl (pH7.4). Filters are added to 6 mls of Ready-Safe liquid scintillation cocktail and quantified by liquid scintillation spectrometry in a LKB 1219 RackBeta counter. Non-specific binding is determined by the addition of either 1 μM of CP-99994 (NK1) or 1 μM SR-48968 (NK2) (both synthesized by the chemistry department of Schering-Plough Research Institute).

[2] = biological target: T2, human neurokinin 2 (NK2) receptor (Homo sapiens, UniProt P21452); experiment: Neurokinin receptor binding assay, NK2 ([3H]-Neurokinin A, CHO cell membranes); details: competition with [3H]-Neurokinin A, Cheng and Prusoff
T2 construct: expressed in transfected cells; host or cells: Chinese hamster ovary (CHO) cells, membranes
T2 sequence (P21452 1-398): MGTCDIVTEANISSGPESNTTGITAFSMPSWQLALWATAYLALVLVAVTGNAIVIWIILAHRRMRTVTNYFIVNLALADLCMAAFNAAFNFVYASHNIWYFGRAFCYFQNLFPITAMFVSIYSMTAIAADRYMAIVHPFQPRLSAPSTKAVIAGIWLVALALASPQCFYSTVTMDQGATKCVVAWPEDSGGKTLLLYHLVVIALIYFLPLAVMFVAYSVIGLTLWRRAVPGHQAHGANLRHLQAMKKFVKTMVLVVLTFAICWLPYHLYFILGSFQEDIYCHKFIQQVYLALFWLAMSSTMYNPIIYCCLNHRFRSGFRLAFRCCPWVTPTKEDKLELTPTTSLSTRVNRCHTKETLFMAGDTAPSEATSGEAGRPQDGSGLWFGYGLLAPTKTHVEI
Method: as §1, §2, §3, §4

T1 sequence (P25103 whole entry): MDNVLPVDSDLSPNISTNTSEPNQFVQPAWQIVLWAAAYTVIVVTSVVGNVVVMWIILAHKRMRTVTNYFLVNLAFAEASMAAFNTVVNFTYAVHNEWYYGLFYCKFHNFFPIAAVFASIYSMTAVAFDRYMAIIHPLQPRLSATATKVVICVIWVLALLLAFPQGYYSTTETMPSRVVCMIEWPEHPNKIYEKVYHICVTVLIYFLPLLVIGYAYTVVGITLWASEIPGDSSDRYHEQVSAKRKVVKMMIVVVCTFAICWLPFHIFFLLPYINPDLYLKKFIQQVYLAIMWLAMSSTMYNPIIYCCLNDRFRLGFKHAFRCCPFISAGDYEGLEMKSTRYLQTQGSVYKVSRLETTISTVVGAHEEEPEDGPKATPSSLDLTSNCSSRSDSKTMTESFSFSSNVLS

SMILES: Cc1cc(C)cc(C(=O)N2CCN(C(=O)CO[C@H]3C[C@H]4CC[C@@H](C3)N4C(=O)OC(C)(C)C)[C@H](c3ccc(Cl)c(Cl)c3)C2)c1 [Example 56, (Endo)-1,1-dimethylethyl 3-[2-[2(R)-(3,4-dichlorophenyl)-4-(3,5-dimethylbenzoyl)-1-piperazinyl]-2-oxoethoxy]-8-aza[3.2.1]octane-8-carboxylate]
- Ki [1]: > 100 nM
- Ki [2]: 55 nM

SMILES: CNC(=O)c1ccc(CN2[C@@H]3CC[C@H]2C[C@@H](OCC(=O)N2CCN(C(=O)c4cc(C)cc(C)c4)C[C@H]2c2ccc(Cl)c(Cl)c2)C3)cc1 [Example 58]
- Ki [1]: 19 nM
- Ki [2]: 57 nM

SMILES: CC(=O)Nc1ccc(CN2C[C@@H]3C[C@H]2C[C@H]3OCC(=O)N2CCN(C(=O)c3cc(C)cc(C)c3)C[C@H]2c2ccc(Cl)c(Cl)c2)cc1 [Example 51]
- Ki [1]: 1.5 nM
- Ki [2]: 4.4 nM

SMILES: Cc1cc(C)cc(C(=O)N2CCN(C(=O)CO[C@@H]3C[C@@H]4C[C@H]3CN4Cc3ccsc3)[C@H](c3ccc(Cl)c(Cl)c3)C2)c1 [Example 50, 2(R)-(3,4-Dichlorophenyl)-4-(3,5-dimethylbenzoyl)-1-[[[exo-2-(3-thienylmethyl)-1(S),4(S)-2-azabicyclo[2.2.1]heptan-5-yl)oxy]acetyl]piperazine]
- Ki [1]: 1.8 nM
- Ki [2]: 2.6 nM

SMILES: Cc1cc(C)cc(C(=O)N2CCN(C(=O)CCN3C[C@@H]4C[C@H]3CN4C(=O)[C@H](Cc3ccccc3)NC(=O)OC(C)(C)C)[C@H](c3ccc(Cl)c(Cl)c3)C2)c1
- Ki [1]: 45 nM
- Ki [2]: 14 nM

SMILES: Cc1cc(C)cc(C(=O)N2CCN(C(=O)CCN3C[C@@H]4C[C@H]3CN4C(=NC#N)Nc3ccccc3)[C@H](c3ccc(Cl)c(Cl)c3)C2)c1 [Example 30]
- Ki [1]: 34 nM
- Ki [2]: 24 nM

SMILES: Cc1cc(C)cc(C(=O)N2CCN(C(=O)CCN3C[C@@H]4C[C@H]3CN4C(=O)[C@@H](N)Cc3cccs3)[C@H](c3ccc(Cl)c(Cl)c3)C2)c1
- Ki [1]: 16 nM
- Ki [2]: 0.35 nM

SMILES: Cc1cc(C)cc(C(=O)N2CCN(C(=O)CN[C@H]3C[C@H]4CC[C@@H](C3)N4C(=O)OC(C)(C)C)[C@H](c3ccc(Cl)c(Cl)c3)C2)c1 [Example 67]
- Ki [1]: 159 nM
- Ki [2]: 9.3 nM

SMILES: CNC(=O)N[C@H](Cc1ccccc1)C(=O)N1C[C@@H]2C[C@H]1CN2CCC(=O)N1CCN(C(=O)c2cc(C)cc(C)c2)C[C@H]1c1ccc(Cl)c(Cl)c1 [35 (R = --CH3)]
- Ki [1]: 6.3 nM
- Ki [2]: 0.93 nM
